The test system of assay [1] is TUNEL positive cells in heart, liver and kidney. The experiment in a line: Adriamycin toxicity: determination of anti-apoptotic activity (TUNEL staining). The format is in vivo, Wistar rats. Conditions: for TUNEL positive cells, Heart / TUNEL positive cells, Kidney / TUNEL positive cells, Liver: ± SEM. As to the method: 2. Adriamycin Toxicity: Determination of Anti-Apoptotic Activity
Wistar rats, weighing 200-250 g, were anesthetized with chloral hydrate, 400 mg/kg, and Alzet osmotic minipumps (2 ML1), were implanted subcutaneously (=s.c.). The pumps had been filled with either vehicle or solution containing compounds of the invention at the appropriate concentration and primed prior to implantation. Animals subsequently received adriamycin at three equal daily doses of 5 mg/kg i.p. on days 1, 2 and 3. Rats were euthanized 5 days after the first injection of adriamycin and transcardially perfused with a solution containing 4% paraformaldehyde in phosphate buffer. The heart, liver and kidneys were subsequently removed and embedded in parafin.
TUNEL staining: For terminal deoxynucleotide transferase-mediated dUTP nick end-label (TUNEL) based histological analysis, organs were post-fixed for 5 days at 4° C. and paraffin-embedded. TUNEL staining was performed on 10 μm thick paraffin sections using the ApopTag Peroxidase kit (S 7100, Oncor Appligene, Heidelberg, Germany) according to the manufacturer's instructions. Briefly, after pretreatment with proteinase K and quenching of endogenous peroxidase, sections were incubated in equilibration buffer followed by working strength TdT enzyme (incorporating digoxigenin labeled dUTP nucleotides to free 3′-OH DNA termini), (1 hr, 37° C.). Sections were incubated in stop/wash buffer (30 min, 37° C.), then with anti-digoxigenin-peroxidase conjugate (30 min) followed by DAB substrate (Sigma, Deisenhofen, Germany) and lightly counterstained with methylgreen.
Wistar rats were administered adriamycin at the cumulative dose of 15 mg/kg i.p. The test substance of Example 4 was administered s.c. at the doses of 20, 50 or 100 mg/kg and day by means of Alzet osmotic minipumps over 5 days. Animals were euthanized and transcardially perfused 5 days after the first injection of adriamycin and the heart, kidney and liver were processed for TUNEL staining. Densities of TUNEL positive cells were determined as described in the methods. Results for each organ (heart, liver, kidney) were measured as mean densities of TUNEL positive cells ±SEM for the control groups and the different test groups (20, 50 or 100 mg/kg and day of test compound of Example 4) and listed in table 8 below.
Comparisons between groups were performed by means of Student's t test (**P<0.01; ***P<0.001 compared to vehicle treated rats).

Assay [2] concerns the target T1, hSEP (sol hu)(his)6; His6-tagged hSEP ectodomain (Homo sapiens, UniProt Q495T6).
T1 construct: His6-tagged hSEP ectodomain; His6; purchased Innogenetics, Ghent, Belgium
T1 sequence (Q495T6 49-779 limits assumed): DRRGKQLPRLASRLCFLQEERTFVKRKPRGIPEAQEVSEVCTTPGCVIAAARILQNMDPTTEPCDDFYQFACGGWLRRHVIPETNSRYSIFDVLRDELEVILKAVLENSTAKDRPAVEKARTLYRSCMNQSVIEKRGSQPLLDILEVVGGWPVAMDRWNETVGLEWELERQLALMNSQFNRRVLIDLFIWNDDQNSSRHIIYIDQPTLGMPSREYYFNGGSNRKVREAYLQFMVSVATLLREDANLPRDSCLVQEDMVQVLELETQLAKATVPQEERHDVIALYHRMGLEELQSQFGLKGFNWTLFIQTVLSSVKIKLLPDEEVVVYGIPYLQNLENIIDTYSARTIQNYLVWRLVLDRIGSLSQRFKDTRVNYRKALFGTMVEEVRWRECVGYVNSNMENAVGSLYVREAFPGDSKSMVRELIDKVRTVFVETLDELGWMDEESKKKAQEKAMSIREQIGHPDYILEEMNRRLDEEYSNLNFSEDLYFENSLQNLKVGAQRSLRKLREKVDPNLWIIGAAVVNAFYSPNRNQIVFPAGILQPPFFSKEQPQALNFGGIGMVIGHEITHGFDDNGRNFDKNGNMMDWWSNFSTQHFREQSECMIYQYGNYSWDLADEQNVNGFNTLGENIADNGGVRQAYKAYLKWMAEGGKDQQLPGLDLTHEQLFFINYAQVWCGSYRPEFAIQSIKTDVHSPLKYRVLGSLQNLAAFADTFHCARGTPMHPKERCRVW
The experiment in a line: Enzymatic breakdown of CNP and VIP by hSEP and its inhibition, in vitro, HPLC. The format is biochemical. How it is done: The inhibition of the enzymatic breakdown of CNP and VIP by the compounds used according to the invention was measured in an enzymatic in vitro assay according to the following protocol:
All test compounds were dissolved in DMSO at 10 mM and further diluted with assay buffer.
80 μl of assay buffer, 10 μl of enzyme working solution (NEP or hSEP) and 10 μl of peptide stock solution (VIP or CNP) were mixed in an Eppendorf vial and incubated for 120 min. at 37° C. The enzymatic reaction was subsequently terminated by heating to 95° C. for 5 min. After centrifugation (Heraeus Biofuge B, 3 min) the supernatant was subjected to HPLC.
70 μl of assay buffer, 10 μl of enzyme working solution (NEP or hSEP) and 10 μl of a test compound solution were mixed in an Eppendorf vial and preincubated at 37° C. for 15 minutes. Then, 10 μl of peptide stock solution (VIP or CNP) was added and the reaction mixture was incubated at 37° C. for 60 min. to allow enzymatic hydrolysis. The enzymatic reaction was subsequently terminated by heating to 95° C. for 5 min. After centrifugation (Heraeus Biofuge B, 3 min) the supernatant was subjected to HPLC. In order to separate the remaining substrate from the cleavage products, a reversed phase HPLC technique with a CC 125/4 Nucleosil 300/5 C18 RP column and a CC 8/4 Nucleosil 100/5 C18 precolumn (Macherey-Nagel, Düren, Germany) was used. 60 μl of the reaction samples were injected into the HPLC and the column was eluted at a flow rate of 1 ml/min with the following gradient:
All peptides were detected by absorbance at 214 nm (UV spectroscopy). The percentage (=%) of hydrolysis was calculated on the basis of the peak area of the undegraded peptide for an enzyme containing sample Y in correlation to a sample containing the same concentration of peptide without enzyme (blank) by the following equation: % hydrolysis=100*(blank−Y)
Basis of the calculation of % inhibition is the peak area of the undegraded peptide (VIP or CNP) for an inhibitor containing sample X in comparison to samples containing only peptide (blank) or peptide and enzyme without inhibitor (control) according to the following equation: % inhib=100*(X−control)/(blank−control)
All samples were run in duplicate and mean values were used. A solvent control (0.1% DMSO) was added to each assay run. CNP and VIP were cleaved by NEP and hSEP in vitro.

Where [3] appears, read: adriamycin 15 mg/kg cumulative i.p. + 20 mg/kg and day s.c. minipump over 5 days.
Setting [4] is: adriamycin 15 mg/kg cumulative i.p. + 50 mg/kg and day s.c. minipump over 5 days.
[5] abbreviates: adriamycin 15 mg/kg cumulative i.p. + 100 mg/kg and day s.c. minipump over 5 days.

“Also recorded” adds a separate entry of the source. Read-outs that look alike come from different tables or passages of the source. Marks after values point to notes of the source that are not given here.

In the case of “{(3S)-3-[({1-[(2″rel1″)-2-ethoxycarbonyl)-4-(isopropylamino)-4-oxobutyl]cyclopentyl}-carbonyl)amino]-2-oxo-2,3,4,5-tetrahydro-1H-1-benzazepin-1-yl}acetic acid [Example 4]”, the “protection against adriamycin toxicity (densities of TUNEL positive cells)” value in assay [1] (20, 50 or 100 mg/kg and day s.c., heart, liver, kidney) is “significant protection against adriamycin toxicity in the heart, liver and kidney; also recorded: dose-dependently decreased the cytotoxic effect of adriamycin in all three organs”. In addition, the “TUNEL positive cells, Heart” value in assay [1] (setting [3]) is 4.350 ± 0.248*** cells/mm3 × 102; in assay [1] (setting [4]), 3.700 ± 0.260*** cells/mm3 × 102; in assay [1] (setting [5]), 3.550 ± 0.157*** cells/mm3 × 102. The “TUNEL positive cells, Kidney” value in assay [1] (setting [3]) is 7.900 ± 0.306*** cells/mm3 × 102; in assay [1] (setting [4]), 7.850 ± 0.587** cells/mm3 × 102; in assay [1] (setting [5]) it was 6.300 ± 0.260*** cells/mm3 × 102. Besides, the results for the “TUNEL positive cells, Liver” value in assay [1] (setting [3]), in assay [1] (setting [4]) and in assay [1] (setting [5]) were 8.750 ± 0.301** cells/mm3 × 102, 8.250 ± 0.271*** cells/mm3 × 102 and 7.450 ± 0.329*** cells/mm3 × 102, respectively. In addition, the “most effective dose against adriamycin toxicity” value in assay [1] (of 20, 50 or 100 mg/kg and day s.c.) is 100 mg/kg and day. Besides, the IC50 stood at 1 nM in assay [2] (substrate CNP (32-53), read-out: inhibition of breakdown of CNP by hSEP, IC50) and 3.1 nM in assay [2] (substrate VIP, read-out: inhibition of breakdown of VIP by hSEP, IC50).

By IC50 is commonly meant the point on the concentration scale where inhibition reaches its midpoint.
